Laboratory results taken from ChEMBL document CHEMBL1268921, “New pyridazinone derivatives with vasorelaxant and platelet antiaggregatory activities” (Bioorg Med Chem Lett, 2010).
Activity calls are given as the source filed them. No cut-off for these calls is given here.

Experiments:
Aorta = experiment: Vasorelaxant activity against noradrenaline-induced contraction in intact rat aortic rings; type: functional, tissue-based
[1] = Antiplatelet activity against human platelet assessed as inhibition of collagen-induced platelet aggregation; type: functional, cell-based
Platelet = experiment: Antiplatelet activity against human platelet assessed as inhibition of thrombin-induced platelet aggregation at <100 uM; type: functional, cell-based
[2] = target: Prostaglandin G/H synthase 1 (Homo sapiens) (UniProt P23219); experiment: Inhibition of COX1
Prostaglandin G/H synthase 1 (Homo sapiens), sequence (P23219 whole entry): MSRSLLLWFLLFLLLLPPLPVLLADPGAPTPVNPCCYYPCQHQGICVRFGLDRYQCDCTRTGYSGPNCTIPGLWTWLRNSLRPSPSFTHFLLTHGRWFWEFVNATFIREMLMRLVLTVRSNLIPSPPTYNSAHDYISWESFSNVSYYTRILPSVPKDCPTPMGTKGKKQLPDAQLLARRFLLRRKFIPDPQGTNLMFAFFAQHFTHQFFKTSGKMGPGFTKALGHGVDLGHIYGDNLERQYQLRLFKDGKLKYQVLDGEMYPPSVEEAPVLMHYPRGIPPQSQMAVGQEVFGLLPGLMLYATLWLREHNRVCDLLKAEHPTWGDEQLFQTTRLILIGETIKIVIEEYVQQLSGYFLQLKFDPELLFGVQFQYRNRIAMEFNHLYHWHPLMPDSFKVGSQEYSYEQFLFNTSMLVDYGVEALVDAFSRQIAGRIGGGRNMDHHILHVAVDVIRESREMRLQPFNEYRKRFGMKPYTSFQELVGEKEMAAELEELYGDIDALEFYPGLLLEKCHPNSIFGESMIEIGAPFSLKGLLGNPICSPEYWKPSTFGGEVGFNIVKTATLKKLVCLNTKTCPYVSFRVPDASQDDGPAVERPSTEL

| SMILES | IC50 (Aorta) | IC50 [1] | Activity (Platelet) | inhibition [2] |
| --- | --- | --- | --- | --- |
| Cn1nc(CCCO[Si](c2ccccc2)(c2ccccc2)C(C)(C)C)ccc1=O | > 100 µM | 2.34 µM | Active |  |
| Cn1nc(CCO)ccc1=O | > 100 µM | 60.4 µM | Active |  |
| Cn1nc(CCOCc2ccccc2)ccc1=O | > 100 µM | > 100 µM | Active |  |
| CC(C)(C)[Si](OCCCc1ccc(=O)n(Cc2ccccc2)n1)(c1ccccc1)c1ccccc1 | 39.9 µM | 3.9 µM | Active |  |
| CC(C)(C)[Si](OCc1ccc(=O)[nH]n1)(c1ccccc1)c1ccccc1 | 62.6 µM | 1.8 µM | Active |  |
| O=c1ccc(CCCO)nn1Cc1ccccc1 | > 100 µM | 4.7 µM | Active |  |
| Cn1nc(COCc2ccccc2)ccc1=O | > 100 µM | > 100 µM | Active |  |
| O=c1ccc(CCCOCc2ccccc2)nn1Cc1ccccc1 | 32.5 µM | 5.9 µM | Active |  |
| O=c1ccc(CO)nn1Cc1ccccc1 | > 100 µM | > 100 µM | Active |  |
| O=c1ccc(CCO)n[nH]1 | > 100 µM | 64.3 µM | Active |  |
| Cn1nc(CCCOCc2ccccc2)ccc1=O | 76.4 µM | 50.7 µM | Active |  |
| Cn1nc(CCCO)ccc1=O | > 100 µM | > 100 µM | Active |  |
| Cn1nc(CO[Si](c2ccccc2)(c2ccccc2)C(C)(C)C)ccc1=O | 58.4 µM | 4.55 µM | Active |  |
| CC(C)(C)[Si](OCc1ccc(=O)n(Cc2ccccc2)n1)(c1ccccc1)c1ccccc1 | > 100 µM | 4.6 µM | Active |  |
| O=c1ccc(CO)n[nH]1 | > 100 µM | > 100 µM | Active |  |
| CC(C)(C)[Si](OCCc1ccc(=O)n(Cc2ccccc2)n1)(c1ccccc1)c1ccccc1 | > 100 µM | 4.8 µM | Active |  |
| O=c1ccc(CCO)nn1Cc1ccccc1 | > 100 µM | > 100 µM | Active |  |
| Cn1nc(CO)ccc1=O | > 100 µM | 69.6 µM | Active |  |
| CC(C)(C)[Si](OCCc1ccc(=O)[nH]n1)(c1ccccc1)c1ccccc1 | 56.2 µM | 3.87 µM | Active |  |
| Cc1[nH]c(=O)c(C#N)cc1-c1ccncc1 [MILRINONE] | 0.122 µM | 38.5 µM |  |  |
| O=c1ccc(CCOCc2ccccc2)nn1Cc1ccccc1 | 32.3 µM | 4.11 µM | Active |  |
| O=c1ccc(CCCO)n[nH]1 | > 100 µM | > 100 µM | Active |  |
| CC(C)(C)[Si](OCCCc1ccc(=O)[nH]n1)(c1ccccc1)c1ccccc1 | 78.2 µM | 2.13 µM | Active |  |
| O=c1ccc(COCc2ccccc2)nn1Cc1ccccc1 | 35.3 µM | 8 µM | Active |  |
| Cn1nc(CCO[Si](c2ccccc2)(c2ccccc2)C(C)(C)C)ccc1=O | 47 µM | 3.17 µM | Active | Active |
